In a polymer gas permeability compilation:

Row | SMILES | CH4 permeability [Barrer] | CO2 permeability [Barrer] | H2 permeability [Barrer] | N2 permeability [Barrer] | O2 permeability [Barrer]
1 | *c1ccc(-c2ccc(-n3c(=O)c4cc5oc6cc7c(cc6oc5cc4c3=O)C3(CC(C)(C)c4cc5oc6cc8c(=O)n(*)c(=O)c8cc6oc5cc43)CC7(C)C)cc2C(F)(F)F)c(C(F)(F)F)c1 (repeat unit) | 20 | 420 | 300 | 16 | 64
2 | *C(=C(*)c1ccc2c(c1)C(C)(C)c1ccccc1-2)c1cc(F)cc(F)c1 (repeat unit) | 4200 | 9200 | 5000 | 1700 | 2700
3 | *c1cc2c(cc1C)-c1cc(C)c(N3C(=O)c4ccc(-c5ccc6c(c5)C(=O)N(*)C6=O)cc4C3=O)cc1S2(=O)=O (repeat unit) | 0.037 | 2.74 | – | 0.0763 | 0.577
4 | *c1ccc(Oc2ccc(N3C(=O)c4cc(Oc5ccc(C)cc5)c(-c5cc6c(cc5Oc5ccc(C)cc5)C(=O)N(*)C6=O)cc4C3=O)cc2)cc1 (repeat unit) | 1.45 | 44 | – | 1.25 | 4.99
5 | *Sc1ccc(*)cc1 (repeat unit) | 0.066 | 1.6 | – | 0.046 | 0.19
6 | *C(C(=O)OC(C)CC(C)C)C(*)C(=O)OC(C)(C)C (repeat unit) | – | – | 169 | 16 | 49
7 | *c1c(C)cc2c(c1C)C1c3ccccc3C2c2cc(C)c(N3C(=O)C4C5C=CC(C6C(=O)N(*)C(=O)C56)C4C3=O)c(C)c21 (repeat unit) | 69 | 1310 | 1600 | 71 | 308
8 | */C=C/c1ccc(*)cc1[Si](CC)(CC)CC (repeat unit) | – | 24 | – | 1.8 | 6.6
9 | *NCCCCCCCCCCC(*)=O (repeat unit) | – | 1 | 2.63 | – | –
10 | *C(=C(*)c1ccc2c(c1)C(C)(C)CC2(C)C)c1ccc(F)cc1 (repeat unit) | 34300 | 47000 | 33300 | 15600 | 17900
11 | *c1cccc(C(c2cccc(N3C(=O)c4ccc(C(c5ccc6c(c5)C(=O)N(*)C6=O)(C(F)(F)F)C(F)(F)F)cc4C3=O)c2)(C(F)(F)F)C(F)(F)F)c1 (repeat unit) | 0.08 | 5.1 | – | 0.261 | 1.8
12 | *c1ccc(Oc2ccc(C(C)(C)c3ccc(Oc4ccc(N5C(=O)c6ccc(-c7ccc8c(c7)C(=O)N(*)C8=O)cc6C5=O)cc4)cc3)cc2)cc1 (repeat unit) | 0.0846 | 2.8 | – | 0.0938 | 0.596
13 | *c1ccc(C(c2ccc(N3C(=O)c4ccc(C(=O)c5ccc6c(c5)C(=O)N(*)C6=O)cc4C3=O)cc2)(C(F)(F)F)C(F)(F)F)cc1 (repeat unit) | 0.191 | 17.5 | 30.8 | 0.375 | 2.18
14 | *c1c(C)cc2c(c1C)C1c3ccccc3C2c2cc(C)c(N3C(=O)c4ccc5c6c(ccc(c46)C3=O)C(=O)N(*)C5=O)c(C)c21 (repeat unit) | 122 | 1860 | 1480 | 97 | 390
15 | *CC(*)c1ccc([Si](C)(C)CCCC(F)(F)F)cc1 (repeat unit) | 22 | 284 | 109 | 11.8 | 38.1
16 | *c1ccc(Oc2ccc(N3C(=O)c4ccc(Oc5ccc(Oc6ccc7c(c6)C(=O)N(*)C7=O)cc5)cc4C3=O)cc2)cc1 (repeat unit) | – | – | 4 | 0.034 | 0.216
17 | *c1ccc(C2(c3ccc(*)cc3)OC(=O)c3ccccc32)cc1 (repeat unit) | 2.88 | 72 | 74 | 2.39 | 11
18 | *=CC1CC(C=*)C2C1C([Si](O[Si](C)(C)C)(O[Si](C)(C)C)O[Si](C)(C)C)C2[Si](O[Si](C)(C)C)(O[Si](C)(C)C)O[Si](C)(C)C (repeat unit) | 300 | 1160 | 690 | 100 | 295
19 | *CC(*)OCC1CC2CC1C1CCCC21 (repeat unit) | – | 2.85 | – | 0.13 | 0.81
20 | *c1cccc(N2C(=O)c3ccc(C(=O)c4ccc5c(c4)C(=O)N(*)C5=O)cc3C2=O)c1 (repeat unit) | 0.0086 | 0.428 | – | 0.016 | 0.112
21 | *CC(*)C(=O)OCCCCCCCCCCCCCC (repeat unit) | 65.1 | 297 | 96.2 | 22.1 | 57.1

Row | SMILES | CH4 permeability [Barrer] | CO2 permeability [Barrer] | H2 permeability [Barrer] | N2 permeability [Barrer] | O2 permeability [Barrer]
22 | *Oc1cc(C)c(C2(c3cc(C)c(Oc4ccc(S(=O)(=O)c5ccc(*)cc5)cc4)cc3C)OC(=O)c3ccccc32)cc1C (repeat unit) | 0.225 | 7.69 | 16.9 | 0.21 | 1.55
23 | *c1ccc(C(C)(C)c2cccc(N3C(=O)c4ccc(C(c5ccc6c(c5)C(=O)N(*)C6=O)(C(F)(F)F)C(F)(F)F)cc4C3=O)c2)cc1 (repeat unit) | 0.217 | 10.7 | 38.2 | 0.473 | 2.89
24 | *CC=C(C*)[Si](OC(C)C)(OC(C)C)OC(C)C (repeat unit) | 263 | 1230 | – | 109 | 247
25 | *c1ccc(-c2ccc(N3C(=O)c4ccc(C(c5ccc6c(c5)C(=O)N(*)C6=O)(C(F)(F)F)C(F)(F)F)cc4C3=O)c(N)c2)cc1N (repeat unit) | – | 138 | – | 5.2 | 34
26 | *Oc1c(C)cc(*)c(C(=O)c2ccc(Br)cc2)c1C (repeat unit) | 1.13 | 18 | – | 2.13 | 8.45
27 | *c1cccc2c(-n3c(=O)c4cc5oc6cc7c(cc6oc5cc4c3=O)C3(CC(C)(C)c4cc5oc6cc8c(=O)n(*)c(=O)c8cc6oc5cc43)CC7(C)C)cccc12 (repeat unit) | 27 | 510 | 350 | 19 | 77
28 | *Oc1ccc(N2C(=O)CCC23CCC(=O)N3c2ccc(Oc3c(F)c(F)c(COC(C4CCCC(C(OCc5c(F)c(F)c(*)c(F)c5F)(C(F)(F)F)C(F)(F)F)C4)(C(F)(F)F)C(F)(F)F)c(F)c3F)cc2)cc1 (repeat unit) | 0.25 | 7.1 | 21 | 0.46 | 2.2
29 | *CC(*)CC(C)C (repeat unit) | – | 92.6 | – | – | 32.3
30 | *CC(*)c1ccncc1 (repeat unit) | 0.14 | 3.31 | 12.6 | 0.13 | 0.84
31 | *c1ccc(Oc2ccc(C(c3ccc(Oc4ccc(N5C(=O)c6ccc(C(c7ccc8c(c7)C(=O)N(*)C8=O)(C(F)(F)F)C(F)(F)F)cc6C5=O)cc4C(F)(F)F)cc3)(C(F)(F)F)C(F)(F)F)cc2)c(C(F)(F)F)c1 (repeat unit) | 0.703 | 22.8 | 55.4 | 1.3 | 6.5
32 | *c1ccccc1Oc1ccc2ccccc2c1-c1c(Oc2ccccc2N2C(=O)c3ccc(C(c4ccc5c(c4)C(=O)N(*)C5=O)(C(F)(F)F)C(F)(F)F)cc3C2=O)ccc2ccccc12 (repeat unit) | 0.07 | 4.88 | 6.86 | 0.13 | 0.99
33 | *c1c(C)c(C)c(N2C(=O)c3ccc(C(=O)c4ccc5c(c4)C(=O)N(*)C5=O)cc3C2=O)c(C)c1C (repeat unit) | – | – | 108 | 2.63 | 11.8
34 | *C(F)(F)C1(F)OC(F)(F)C(F)(F)C1(F)C(*)(F)F (repeat unit) | 2 | 35 | 59 | 5 | 16
35 | *CC(CCl)O* (repeat unit) | – | – | 8.9 | 0.44 | 1.05
36 | *Oc1ccc(C(C)(C)c2ccc(Oc3ccc(S(=O)(=O)c4ccc(*)cc4)cc3)cc2)cc1 (repeat unit) | 0.25 | 5.6 | 14 | 0.25 | 1.4
37 | *C(C(=O)OC(C)CC)C(*)C(=O)OC(C)(C)C (repeat unit) | – | – | 145 | 13 | 39
38 | *OC(=O)Oc1c(Br)cc(C(C)(C)c2cc(Br)c(*)c(Br)c2)cc1Br (repeat unit) | 0.123 | 4.21 | 43 | 0.191 | 1.43
39 | *Nc1ccc(Cc2ccc(NC(=O)CN3C(=O)c4ccc(C(*)=O)cc4C3=O)cc2)cc1 (repeat unit) | 0.01 | 0.264 | – | 0.017 | 0.065
40 | *Oc1ccc(-c2nn(-c3ccc(S(=O)(=O)c4ccc(*)cc4)cc3)c(=O)c3ccccc23)cc1 (repeat unit) | – | 0.92 | 2.4 | 0.027 | 0.15
41 | *c1ccc(Oc2ccc(-n3c(=O)c4cc5sc6cc7c(=O)n(*)c(=O)c7cc6sc5cc4c3=O)cc2)cc1 (repeat unit) | 0.082 | 4 | 11 | 0.11 | 0.74
42 | *C(=C(*)c1ccc(C(C)(C)C)cc1)c1ccccc1 (repeat unit) | – | 6200 | – | 930 | 1710
